The target of the assay is human kisspeptin receptor (Homo sapiens (Human), UniProt Q969F8). Briefly: Human KISS1R binding assay (membrane competition binding). Particulars: 90 min at room temperature; competition with 0.2 nM [125I]-metastin (45-54); Flp-In T-Rex 293 kisspeptin membranes; metal complexes nonradioactive Ga, In, Lu; read-out: hKiSSR Binding Ki (90 min). Summed up: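 Radioligand competition: 0.2 nM [125I]-metastin (45-54) displaced by test ligand (usually 0–10,000 nM) over 90 min at room temperature, pH 7.4 buffer with 0.1% BSA. Receptor source is crude membrane (5–10 μg) from tetracycline-induced Flp-In T-Rex 293 cells. Bound label filtered and counted; Ki from non-linear regression.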
Chain of human kisspeptin receptor (Q969F8 whole entry): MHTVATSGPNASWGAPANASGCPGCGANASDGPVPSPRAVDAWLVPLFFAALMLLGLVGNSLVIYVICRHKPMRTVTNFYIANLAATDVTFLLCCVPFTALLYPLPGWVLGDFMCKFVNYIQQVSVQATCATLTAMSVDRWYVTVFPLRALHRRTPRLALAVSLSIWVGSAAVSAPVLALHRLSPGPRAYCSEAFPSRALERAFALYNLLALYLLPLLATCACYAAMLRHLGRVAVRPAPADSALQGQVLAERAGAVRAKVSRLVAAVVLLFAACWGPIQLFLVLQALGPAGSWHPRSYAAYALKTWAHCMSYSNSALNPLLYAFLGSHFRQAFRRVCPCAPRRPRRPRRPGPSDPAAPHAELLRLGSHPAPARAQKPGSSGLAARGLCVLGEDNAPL

Consider 17 molecules from patent US20250312499A1, “KISSPEPTIN RECEPTOR (KISS1R) TARGETED THERAPEUTICS AND USES THEREOF” (priority 2024, published 2025).

Square brackets hold non-standard residues; d marks the D form. Peptide text beside a SMILES is read from it. * marks the point of attachment. DOTA = O=C(O)CN1CCN(CC(=O)O)CCN(CC(=O)*)CCN(CC(=O)O)CC1; Gly(N-(3-F-4-Me-benzyl)) = Cc1ccc(CNCC(=O)*)cc1F; Gly(N-3-F-4-Me-benzyl) = Cc1ccc(CNCC(=O)O)cc1F; Bpa = N[C@@H](Cc1ccc(C(=O)c2ccccc2)cc1)C(=O)O; Hydrocinnamoyl(4-Me) = Cc1ccc(CCC(=O)*)cc1; Bip = N[C@@H](Cc1ccc(-c2ccccc2)cc1)C(=O)O; Gly(Nα-CH2(4-Pyr)) = O=C(O)CNCc1ccncc1; d2Nal = N[C@H](Cc1ccc2ccccc2c1)C(=O)O; NBzl(4-I)Gly = O=C(O)CNCc1ccc(I)cc1; d4Pal = N[C@H](Cc1ccncc1)C(=O)O; Cha = N[C@@H](CC1CCCCC1)C(=O)O; N(octyl)Gly = CCCCCCCCNCC(=O)O; X15 = O=C(CNCCc1ccc(I)cc1)*; Octanoyl = CCCCCCCC(=O)*; Api = NC1(C(=O)O)CCNCC1; PEG2 = NCCOCCOCCC(=O)O; Ahx = NCCCCCC(=O)O; azaGly = NNC(=O)O; Sar = CNCC(=O)O

Take `CNCC(=O)N1CCC(NC(=O)[C@H](CC(C)C)NC(=O)NNC(=O)[C@H](Cc2ccccc2)NC(=O)[C@@H](NC(=O)[C@H](CC(N)=O)NC(=O)[C@H](Cc2ccc(C(=O)c3ccccc3)cc2)NC(=O)[C@@H](Cc2ccc(O)cc2)NC(=O)CCCCCNC(=O)CN2CCN(CC(=O)O)CCN(CC(=O)O)CCN(CC(=O)O)CC2)[C@@H](C)O)(C(=O)N[C@@H](Cc2c[nH]c3ccccc23)C(N)=O)CC1` [Compound 346] ({DOTA-Ahx}-[dY][Bpa]NTF[azaGly]L[Api](Sar)W-NH2): the Ki (commonly a measure of affinity in units of concentration, obtained from inhibition or displacement) is < 10 nM.
With `CCCCCCCC(=O)N[C@H](Cc1ccc(O)cc1)C(=O)N[C@H](CCCCNC(=O)CN1CCN(CC(=O)O)CCN(CC(=O)O)CCN(CC(=O)O)CC1)C(=O)N[C@@H](CC(N)=O)C(=O)N[C@H](C(=O)N[C@@H](CC1CCCCC1)C(=O)NNC(=O)N[C@@H](CC(C)C)C(=O)NC1(C(=O)N[C@H](Cc2c[nH]c3ccccc23)C(N)=O)CCN(C(=O)CNC)CC1)[C@@H](C)O` [Compound 355] (Octanoyl-[dY][dK](DOTA)NT[Cha][azaGly]L[Api](Sar)[dW]-NH2), the Ki was < 10 nM.
As to `CNCC(=O)N1CCC(NC(=O)[C@H](CC(C)C)NC(=O)NNC(=O)[C@H](CC2CCCCC2)NC(=O)[C@@H](NC(=O)[C@H](CC(N)=O)NC(=O)[C@H](CCCCNC(=O)CN2CCN(CC(=O)O)CCN(CC(=O)O)CCN(CC(=O)O)CC2)NC(=O)[C@@H](Cc2ccc(O)cc2)NC(=O)CCOCCOCCNC(=O)CCc2ccc(C)cc2)[C@@H](C)O)(C(=O)N[C@H](Cc2c[nH]c3ccccc23)C(N)=O)CC1` [Compound 356] ({Hydrocinnamoyl(4-Me)-PEG2}-[dY]K(DOTA)NT[Cha][azaGly]L[Api](Sar)[dW]-NH2), the Ki was < 10 nM.
For the molecule `CNCC(=O)N1CCC(NC(=O)[C@H](CC(C)C)NC(=O)NNC(=O)[C@H](Cc2ccccc2)NC(=O)[C@@H](NC(=O)[C@H](CC(N)=O)NC(=O)[C@@H](CCCCNC(=O)CN2CCN(CC(=O)O)CCN(CC(=O)O)CCN(CC(=O)O)CC2)NC(=O)[C@@H](Cc2ccc(O)cc2)NC(=O)CCOCCOCCNC(=O)CCc2ccc(C)cc2)[C@@H](C)O)(C(=O)N[C@H](Cc2c[nH]c3ccccc23)C(N)=O)CC1` [Compound 357] ({Hydrocinnamoyl(4-Me)-PEG2}-[dY][dK](DOTA)NTF[azaGly]L[Api](Sar)[dW]-NH2), the Ki was < 10 nM.
For the molecule `CNCC(=O)N1CCC(NC(=O)[C@H](CC(C)C)NC(=O)NNC(=O)[C@H](CC2CCCCC2)NC(=O)[C@@H](NC(=O)[C@H](CC(N)=O)NC(=O)[C@@H](CCCCNC(=O)CN2CCN(CC(=O)O)CCN(CC(=O)O)CCN(CC(=O)O)CC2)NC(=O)[C@@H](Cc2ccc(O)cc2)NC(=O)CCOCCOCCNC(=O)CCc2ccc(C)cc2)[C@@H](C)O)(C(=O)N[C@H](Cc2c[nH]c3ccccc23)C(N)=O)CC1` [Compound 358] ({Hydrocinnamoyl(4-Me)-PEG2}-[dY][dK](DOTA)NT[Cha][azaGly]L[Api](Sar)[dW]-NH2), the inhibitory constant (Ki) is < 10 nM.
Then `CNCC(=O)N1CCC(NC(=O)[C@H](CC(C)C)NC(=O)NNC(=O)[C@H](Cc2ccccc2)NC(=O)[C@@H](NC(=O)[C@H](CC(N)=O)NC(=O)[C@H](CCCCNC(=O)CN2CCN(CC(=O)O)CCN(CC(=O)O)CCN(CC(=O)O)CC2)NC(=O)[C@@H](Cc2ccc(O)cc2)NC(=O)CCOCCOCCNC(=O)CNCc2ccc(C)c(F)c2)[C@@H](C)O)(C(=O)N[C@H](Cc2c[nH]c3ccccc23)C(N)=O)CC1` [Compound 359] (H-[Gly(N-3-F-4-Me-benzyl)][PEG2][dY]K(DOTA)NTF[azaGly]L[Api](Sar)[dW]-NH2), with < 10 nM; and `CNCC(=O)N1CCC(NC(=O)[C@H](CC(C)C)NC(=O)NNC(=O)[C@H](Cc2ccccc2)NC(=O)[C@@H](NC(=O)[C@H](CC(N)=O)NC(=O)[C@H](CCCCNC(=O)CN2CCN(CC(=O)O)CCN(CC(=O)O)CCN(CC(=O)O)CC2)NC(=O)[C@@H](Cc2ccc(O)cc2)NC(=O)CNCc2ccc(C)c(F)c2)[C@@H](C)O)(C(=O)N[C@H](Cc2c[nH]c3ccccc23)C(N)=O)CC1` [Compound 360] (H-[Gly(N-3-F-4-Me-benzyl)][dY]K(DOTA)NTF[azaGly]L[Api](Sar)[dW]-NH2), with < 10 nM; and `Cc1ccc(CNCC(=O)N2CCC(NC(=O)[C@H](CC(C)C)NC(=O)NNC(=O)[C@H](Cc3ccccc3)NC(=O)[C@@H](NC(=O)[C@H](CC(N)=O)NC(=O)[C@H](Cc3ccc(-c4ccccc4)cc3)NC(=O)[C@@H](Cc3ccc(O)cc3)NC(=O)CCCCCNC(=O)CN3CCN(CC(=O)O)CCN(CC(=O)O)CCN(CC(=O)O)CC3)[C@@H](C)O)(C(=O)N[C@@H](Cc3c[nH]c4ccccc34)C(N)=O)CC2)cc1F` [Compound 363] ({DOTA-Ahx}-[dY][Bip]NTF[azaGly]L[Api](Gly(N-(3-F-4-Me-benzyl)))W-NH2), with < 10 nM.
For the molecule `Cc1ccc(CNCC(=O)N2CCC(NC(=O)[C@H](CC(C)C)NC(=O)NNC(=O)[C@H](Cc3ccccc3)NC(=O)[C@@H](NC(=O)[C@H](CC(N)=O)NC(=O)[C@H](Cc3ccc(C(=O)c4ccccc4)cc3)NC(=O)[C@@H](Cc3ccc(O)cc3)NC(=O)CCCCCNC(=O)CN3CCN(CC(=O)O)CCN(CC(=O)O)CCN(CC(=O)O)CC3)[C@@H](C)O)(C(=O)N[C@@H](Cc3c[nH]c4ccccc34)C(N)=O)CC2)cc1F` [Compound 364] ({DOTA-Ahx}-[dY][Bpa]NTF[azaGly]L[Api](Gly(N-(3-F-4-Me-benzyl)))W-NH2), the Ki was < 10 nM.
`Cc1ccc(CNCC(=O)N2CCC(NC(=O)[C@H](CC(C)C)NC(=O)NNC(=O)[C@H](Cc3ccccc3)NC(=O)[C@@H](NC(=O)[C@H](CC(N)=O)NC(=O)[C@@H](Cc3ccc4ccccc4c3)NC(=O)[C@@H](Cc3ccc(O)cc3)NC(=O)CNC(=O)CN3CCN(CC(=O)O)CCN(CC(=O)O)CCN(CC(=O)O)CC3)[C@@H](C)O)(C(=O)N[C@@H](Cc3c[nH]c4ccccc34)C(N)=O)CC2)cc1F` [Compound 365] ({DOTA}-G[dY][d2Nal]NTF[azaGly]L[Api](Gly(N-(3-F-4-Me-benzyl)))W-NH2): the Ki was < 10 nM.
Then `Cc1ccc(CNCC(=O)N2CCC(NC(=O)[C@H](CC(C)C)NC(=O)NNC(=O)[C@H](Cc3ccccc3)NC(=O)[C@@H](NC(=O)[C@H](CC(N)=O)NC(=O)[C@@H](Cc3c[nH]c4ccccc34)NC(=O)[C@@H](Cc3ccc(O)cc3)NC(=O)CCCCCNC(=O)CN3CCN(CC(=O)O)CCN(CC(=O)O)CCN(CC(=O)O)CC3)[C@@H](C)O)(C(=O)N[C@@H](Cc3ccc(O)cc3)C(N)=O)CC2)cc1F` [Compound 366] ({DOTA-Ahx}-[dY][dW]NTF[azaGly]L[Api](Gly(N-(3-F-4-Me-benzyl)))Y-NH2), with < 10 nM; and `Cc1ccc(CNCC(=O)N2CCC(NC(=O)[C@H](CC(C)C)NC(=O)NNC(=O)[C@H](Cc3ccccc3)NC(=O)[C@@H](NC(=O)[C@H](CC(N)=O)NC(=O)[C@@H](Cc3ccc4ccccc4c3)NC(=O)[C@@H](Cc3ccc(O)cc3)NC(=O)CCCCCNC(=O)CN3CCN(CC(=O)O)CCN(CC(=O)O)CCN(CC(=O)O)CC3)[C@@H](C)O)(C(=O)N[C@@H](Cc3ccc(O)cc3)C(N)=O)CC2)cc1F` [Compound 367] ({DOTA-Ahx}-[dY][d2Nal]NTF[azaGly]L[Api](Gly(N-(3-F-4-Me-benzyl)))Y-NH2), with < 10 nM.
Regarding `Cc1ccc(CNCC(=O)N2CCC(NC(=O)[C@H](CC(C)C)NC(=O)NNC(=O)[C@H](Cc3ccccc3)NC(=O)[C@@H](NC(=O)[C@H](CC(N)=O)NC(=O)[C@@H](Cc3ccncc3)NC(=O)[C@@H](Cc3ccc(O)cc3)NC(=O)CCOCCOCCNC(=O)CN3CCN(CC(=O)O)CCN(CC(=O)O)CCN(CC(=O)O)CC3)[C@@H](C)O)(C(=O)N[C@@H](Cc3c[nH]c4ccccc34)C(N)=O)CC2)cc1F` [Compound 368] ({DOTA-PEG2}-[dY][d4Pal]NTF[azaGly]L[Api](Gly(N-(3-F-4-Me-benzyl)))W-NH2), the Ki was < 10 nM.
Regarding `CC(C)C[C@H](NC(=O)NNC(=O)[C@H](Cc1ccccc1)NC(=O)[C@@H](NC(=O)[C@H](CC(N)=O)NC(=O)[C@@H](Cc1ccc2ccccc2c1)NC(=O)[C@@H](Cc1ccc(O)cc1)NC(=O)CCCCCNC(=O)CN1CCN(CC(=O)O)CCN(CC(=O)O)CCN(CC(=O)O)CC1)[C@@H](C)O)C(=O)NC1(C(=O)N[C@H](Cc2c[nH]c3ccccc23)C(N)=O)CCN(C(=O)CNCc2ccncc2)CC1` [Compound 370] ({DOTA-Ahx}-[dY][d2Nal]NTF[azaGly]L[Api](Gly(Nα-CH2(4-Pyr)))[dW]-NH2), the Ki was > 100 nM.
Regarding `CC(C)C[C@H](NC(=O)NNC(=O)[C@H](Cc1ccccc1)NC(=O)[C@@H](NC(=O)[C@H](CC(N)=O)NC(=O)[C@@H](Cc1ccc2ccccc2c1)NC(=O)[C@@H](Cc1ccc(O)cc1)NC(=O)CCCCCNC(=O)CN1CCN(CC(=O)O)CCN(CC(=O)O)CCN(CC(=O)O)CC1)[C@@H](C)O)C(=O)NC1(C(=O)N[C@H](Cc2c[nH]c3ccccc23)C(N)=O)CCN(C(=O)CNCc2ccc(I)cc2)CC1` [Compound 371] ({DOTA-Ahx}-[dY][d2Nal]NTF[azaGly]L[Api](NBzl(4-I)Gly)[dW]-NH2), the Ki was < 10 nM.
As to `CC(C)C[C@H](NC(=O)NNC(=O)[C@H](Cc1ccccc1)NC(=O)[C@@H](NC(=O)[C@H](CC(N)=O)NC(=O)[C@@H](Cc1ccc2ccccc2c1)NC(=O)[C@@H](Cc1ccc(O)cc1)NC(=O)CCCCCNC(=O)CN1CCN(CC(=O)O)CCN(CC(=O)O)CCN(CC(=O)O)CC1)[C@@H](C)O)C(=O)NC1(C(=O)N[C@H](Cc2c[nH]c3ccccc23)C(N)=O)CCN(C(=O)CNCCc2ccc(I)cc2)CC1` [Compound 373] ({DOTA-Ahx}-[dY][d2Nal]NTF[azaGly]L[Api](X15)[dW]-NH2), the Ki lay in the range of 10 to 100 nM.
As to `CCCCCCCCNCC(=O)N1CCC(NC(=O)[C@H](CC(C)C)NC(=O)NNC(=O)[C@H](Cc2ccccc2)NC(=O)[C@@H](NC(=O)[C@H](CC(N)=O)NC(=O)[C@@H](Cc2ccc3ccccc3c2)NC(=O)[C@@H](Cc2ccc(O)cc2)NC(=O)CCCCCNC(=O)CN2CCN(CC(=O)O)CCN(CC(=O)O)CCN(CC(=O)O)CC2)[C@@H](C)O)(C(=O)N[C@H](Cc2c[nH]c3ccccc23)C(N)=O)CC1` [Compound 374] ({DOTA-Ahx}-[dY][d2Nal]NTF[azaGly]L[Api](N(octyl)Gly)[dW]-NH2), the Ki was < 10 nM.
